Results on 16 compounds are retold here after paper PMC5382161 (Frontiers in Microbiology, 2017).

SMILES strings stand for the structures. Values after ≈ are worked out from the molar mass of the structure shown. Read-outs that look alike come from different tables or passages of the source.

In assay [1] the test system is Mycobacterium smegmatis mc^2 155. Description: microbe, parasite or virus in culture. It is filed as cell-based.
Assay [2] deals with FtsZ localization in M. smegmatis mc^2 155. The assay can be described thus: FtsZ localization by immunofluorescence microscopy. The class given is cell-based, Mycobacterium smegmatis. The conditions noted are these: late logarithmic phase cells grown with compound for 4 h. How it is done:
The effect of coumarins on the Z-ring formation of M. smegmatis was determined with immunofluoresence microscopy using anti-FtsZ antibodies (Dziedzic et al., [2010]). Late logarithmic phase cells were grown in the presence and absence of coumarins for 4 h. The cells were fixed with formaldehyde washed with phosphate buffer, and immuno-stained with polyclonal anti-FtsZ rabbit antibody (GeneTeX, USA) overnight at 4°C. Alexa fluor (488) goat anti-rabbit secondary antibody (Invitrogen, USA) was used for visualizing Z-rings. The nuclear material was visualized by using an anti-mountant containing DAPI. The cells were visualized in 63 X objective using a Carl-Zeiss fluorescence Microscope (Axio Imager 2 for Life Science Research, Germany). The images were visualized and processed using ZEN image processing software.

A further assay addresses T1, MtbFtsZ (Mycobacterium tuberculosis, UniProt P9WN95).
T1 construct: inferred from pET15 vector and Ni-NTA purification; made in house; host or cells: E. coli BL21 (DE3) Rosetta
T1 sequence (P9WN95 1-379): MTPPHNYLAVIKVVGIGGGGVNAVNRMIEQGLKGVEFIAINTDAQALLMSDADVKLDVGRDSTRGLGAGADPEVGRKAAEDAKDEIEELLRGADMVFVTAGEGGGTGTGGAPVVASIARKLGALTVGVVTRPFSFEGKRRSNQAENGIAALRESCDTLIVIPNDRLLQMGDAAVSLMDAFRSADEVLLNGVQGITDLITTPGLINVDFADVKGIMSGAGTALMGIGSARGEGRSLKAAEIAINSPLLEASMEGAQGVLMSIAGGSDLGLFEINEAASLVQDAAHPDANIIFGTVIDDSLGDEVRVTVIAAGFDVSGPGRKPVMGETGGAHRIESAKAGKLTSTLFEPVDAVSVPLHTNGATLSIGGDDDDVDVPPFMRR
The class given is biochemical.

A further assay has as its system M. smegmatis mc^2 155. The assay can be described thus: Bacterial cell length by bright field microscopy. It is filed as cell-based, Mycobacterium smegmatis.
Assay [3] concerns the target T2, MtbFtsZ wild type (Mycobacterium tuberculosis, UniProt P9WN95).
T2 construct: inferred from pET15 vector and Ni-NTA purification; made in house; host or cells: E. coli BL21 (DE3) Rosetta
T2 sequence (P9WN95 1-379): T1 sequence (P9WN95 1-379)
The class given is biochemical.

In assay [4] the target is T2, MtbFtsZ wild type. The class given is biochemical. The source holds these as a separate data set.
In another assay the test system is bacteria. Also on record: method as in Jaiswal et al., 2007; Bhattacharya et al., 2013. The conditions noted are these: ref Jaiswal et al., 2007; Bhattacharya et al., 2013; cited from earlier work.
The test system of assay [5] is Mycobacterium tuberculosis H37Rv. Details: method as in Rezayan et al., 2012; Upadhyay et al., 2012. The conditions noted are these: ref Rezayan et al., 2012, Upadhyay et al.; cited from earlier work.
The mark [6] stands for this setting: Mycolicibacterium smegmatis, MC^2155, 48 h, M. smegmatis mc^2 155, MABA, 37°C, 48 h, read-out: MIC.
Setting [7] is: Mycolicibacterium smegmatis, MC^2155, 48 h.
Where [8] appears, read: M. smegmatis mc^2 155, MABA, 37°C, 48 h.

For the compound `O=c1cc(O)c2ccccc2o1` [4-Hydroxycoumarin], the MIC in assay [1] (setting [6]) came out at 150 ± 7.4 µM (≈ 24.4 µg/mL).

As to `Cc1cc(=O)oc2cc(O)ccc12` [4-Methylumbelliferone], the MIC in assay [1] (setting [6]) is 42.5 ± 2.4 µM (≈ 7.49 µg/mL).

In the case of `Cc1ccc2oc(=O)ccc2c1` [6-Methylcoumarin], the MIC in assay [1] (setting [6]) stood at 46.8 ± 4.3 µM (≈ 7.5 µg/mL).

The compound `CCN(CC)c1ccc2c(C)cc(=O)oc2c1` [7-Diethylamino-4-methylcoumarin] returned an MIC in assay [1] (setting [7]) of 70.2 ± 6.2 µM (≈ 16.2 µg/mL).

Turning to `Cc1cc(=O)oc2cc(N(C)C)ccc12` [7-Dimethyl-4-methylcoumarin], in assay [2], the “FtsZ localization (immunofluorescence)” value is given as “localization of MtbFtsZ was disrupted”. The “protofilament formation (TEM)” value on MtbFtsZ is “did not allow the formation of network for a protofilament”. The “increase of bacterial length” value in the assay with M. smegmatis mc^2 155 (cells treated with 50 μM, versus untreated cells) is reported as 4 fold. This compound yielded a maximum bacterial length in the assay on M. smegmatis mc^2 155 (cells treated with 50 μM, untreated 4.48 ± 1.25 μm) of 15.2 ± 3.5 μm. Besides, the MIC in assay [1] (setting [8]) stood at 36.8 ± 7.1 µM (≈ 7.48 µg/mL); in assay [1] (M. smegmatis mc^2 155, MABA, 37°C, 48 h, listed as 7-Dimethyl-4-methyl coumarin, read-out: MIC), 36.8 µM (≈ 7.48 µg/mL); in assay [1] (setting [6]), 38.7 µM (≈ 7.87 µg/mL).

On to `COc1ccc2cc3[n+](cc2c1OC)CCc1cc2c(cc1-3)OCO2` [Berberine], for which the “inhibition of the GTPase activity of the protein” value at MtbFtsZ wild type [3] is recorded as 75% ± 2.5. In addition, the “inhibition of the polymerization activity of the protein” value against MtbFtsZ wild type [4] is recorded as 82% ± 1.4.

On to `O=c1ccc2ccccc2o1` [Coumarin], for which the MIC in assay [1] (setting [6]) came out at 214 ± 8.7 µM (≈ 31.2 µg/mL).

In turn, `O=c1ccc2ccc(O)c(O)c2o1` [Daphnetin] had an MIC in assay [1] (setting [7]) of 48.2 ± 6.3 µM (≈ 8.59 µg/mL).

Turning to `O=c1oc2c(O)c(O)cc3c(=O)oc4c(O)c(O)cc1c4c23` [Ellagic acid], the MIC in assay [1] (setting [8]) is 50 ± 2.4 µM (≈ 15.1 µg/mL); in assay [1] (M. smegmatis mc^2 155, MABA, 37°C, 48 h, listed as ellagic acid, read-out: MIC), 50 µM (≈ 15.1 µg/mL); in assay [1] (setting [6]) it was 25 µM (≈ 7.55 µg/mL).

As for `O=c1ccc2cc(O)c(O)cc2o1` [Esculetin], the “protofilament formation (TEM)” value at MtbFtsZ is recorded as “did not allow the formation of network for a protofilament”. Moreover, in the assay on M. smegmatis mc^2 155, the “increase of bacterial length” value is listed as 4 fold and the maximum bacterial length is 17.85 ± 4.5 μm. The compound also yielded an MIC in assay [1] (setting [7]) of 48.2 ± 5.7 µM (≈ 8.59 µg/mL).

As for `CC1=CC(=O)c2c(O)cccc2C1=O` [Plumbagin], in the assay with bacteria, the “increase of the length of bacteria” value was 7 fold.

In the case of `CO[C@H]1/C=C/O[C@@]2(C)Oc3c(C)c(O)c4c(O)c(c(/C=N/N5CCN(C)CC5)c(O)c4c3C2=O)NC(=O)/C(C)=C\C=C\[C@H](C)[C@H](O)[C@@H](C)[C@@H](O)[C@@H](C)[C@H](OC(C)=O)[C@@H]1C` [Rifampicin, reference compound], the MIC in assay [1] (setting [6]) was 3.9 µM (≈ 3.21 µg/mL).

For `CC(C)c1c(O)ccc2c1CC[C@H]1C(C)(C)CCC[C@]21C` [Totarol], the “inhibition of the GTPase activity of the protein” value against MtbFtsZ wild type [3] was 68% ± 3.1. For the same compound, on MtbFtsZ wild type [4], the “inhibition of the polymerization activity of the protein” value was 74% ± 2. Also, the “increase of the length of bacteria” value with bacteria was 5 fold.

Turning to `O=c1ccc2ccc(O)cc2o1` [Umbelliferone], the results for the MIC in assay [5] and in assay [1] (setting [7]) were 58.3 µg/mL (≈ 360 µM) and 46.2 ± 3.2 µM (≈ 7.49 µg/mL), respectively.

Turning to `COc1cc2ccc(=O)oc2cc1O` [scopoletin, reference compound], the MIC in assay [5] is 42 µg/mL (≈ 219 µM).

On to `[H]/N=C(/N)N[C@H]1[C@H](O)[C@@H](O)[C@H](O[C@@H]2O[C@@H](C)[C@](O)(C=O)[C@H]2O[C@@H]2O[C@@H](CO)[C@H](O)[C@@H](O)[C@@H]2NC)[C@@H](N/C(N)=N\[H])[C@@H]1O` [streptomycin, reference compound], for which, in assay [1] (setting [6]), the MIC turned out to be 11.2 µM (≈ 6.5 µg/mL).
